Source: patent US20220217999A1, “METHOD FOR PROTECTING PROTEIN FROM HEAT DAMAGE AND REDUCING RUMEN DEGRADABILITY OF METHIONINE” (AJINOMOTO CO., INC., priority 2019, published 2022)
Where two headings read alike, the source gives them in different places.

Settings: for 16 hr. RUP, % of CP / Calculated IAP (intestinally available protein), g/100 g distillers grains / RUP digestibility, g/100 g RUP / RUP, % of DG Protein / Undigested CP, % of CP / Undigested CP, % of feed DM: 0.5 h 128° C. autoclave
Experimental: Using a sample of wet distillers grains (“DG”) was obtained from a commercial ethanol plant, treatments were applied in duplicates. The DG was treated with the three levels of DL-methionine shown in Table 1 and heated in an autoclave for 0.5 hour at 128° C. Following heat treatment, samples were dried in a forced oven set at 40° C. Dried samples were composited within treatment and analyzed for RUP and undigested total tract protein using a standard method.

CSCCC(N)C(=O)O (racemic) [DL-Methionine]
16 hr. RUP, % of CP (1.0 wt. % DL-Methionine added to distillers grains): 69.2 % of CP
Calculated IAP (intestinally available protein), g/100 g distillers grains (1.0 wt. % DL-Methionine): 15.7 g/100 g distillers grains
RUP digestibility, g/100 g RUP (1.0 wt. % DL-Methionine): 72.1 g/100 g RUP
RUP, % of DG Protein (1.0 wt. % DL-Methionine): 72.8 % of DG Protein
Undigested CP, % of CP (1.0 wt. % DL-Methionine): 19.3 % of CP
Undigested CP, % of feed DM (1.0 wt. % DL-Methionine): 6.02 % of feed DM
16 hr. RUP, % of CP (1.5 wt. % DL-Methionine added to distillers grains): 71.2 % of CP
Calculated IAP (intestinally available protein), g/100 g distillers grains (1.5 wt. % DL-Methionine): 15.2 g/100 g distillers grains
RUP digestibility, g/100 g RUP (1.5 wt. % DL-Methionine): 67.8 g/100 g RUP
RUP, % of DG Protein (1.5 wt. % DL-Methionine): 74.8 % of DG Protein
Undigested CP, % of CP (1.5 wt. % DL-Methionine): 22.9 % of CP
Undigested CP, % of feed DM (1.5 wt. % DL-Methionine): 7.08 % of feed DM
calculated digestibility of RUP, higher compared with Control (2% DL-methionine): 13.9%
total metabolically available protein, higher compared with Control (2% DL-methionine sample): 17%
16 hr. RUP, % of CP (2.0 wt. % DL-Methionine added to distillers grains): 67.2 % of CP
Calculated IAP (intestinally available protein), g/100 g distillers grains (2.0 wt. % DL-Methionine): 16.0 g/100 g distillers grains
RUP digestibility, g/100 g RUP (2.0 wt. % DL-Methionine): 72.7 g/100 g RUP
RUP, % of DG Protein (2.0 wt. % DL-Methionine): 73.3 % of DG Protein
Undigested CP, % of CP (2.0 wt. % DL-Methionine): 18.3 % of CP
Undigested CP, % of feed DM (2.0 wt. % DL-Methionine): 5.85 % of feed DM
total un-digested protein, lower compared with Control (highest level of DL-methionine): 28%
